This passage reports IC50 results from US9486455B2, “Compounds for modulating TRPV3 function” (HYDRA BIOSCIENCES, INC., priority 2007, dated 2016).

For data set [1], the target named is T1, rat (r) TRPV3 (Rattus norvegicus, UniProt Q4QYD9).
T1 construct: expressed in transfected cells
T1 sequence (Q4QYD9 1-791): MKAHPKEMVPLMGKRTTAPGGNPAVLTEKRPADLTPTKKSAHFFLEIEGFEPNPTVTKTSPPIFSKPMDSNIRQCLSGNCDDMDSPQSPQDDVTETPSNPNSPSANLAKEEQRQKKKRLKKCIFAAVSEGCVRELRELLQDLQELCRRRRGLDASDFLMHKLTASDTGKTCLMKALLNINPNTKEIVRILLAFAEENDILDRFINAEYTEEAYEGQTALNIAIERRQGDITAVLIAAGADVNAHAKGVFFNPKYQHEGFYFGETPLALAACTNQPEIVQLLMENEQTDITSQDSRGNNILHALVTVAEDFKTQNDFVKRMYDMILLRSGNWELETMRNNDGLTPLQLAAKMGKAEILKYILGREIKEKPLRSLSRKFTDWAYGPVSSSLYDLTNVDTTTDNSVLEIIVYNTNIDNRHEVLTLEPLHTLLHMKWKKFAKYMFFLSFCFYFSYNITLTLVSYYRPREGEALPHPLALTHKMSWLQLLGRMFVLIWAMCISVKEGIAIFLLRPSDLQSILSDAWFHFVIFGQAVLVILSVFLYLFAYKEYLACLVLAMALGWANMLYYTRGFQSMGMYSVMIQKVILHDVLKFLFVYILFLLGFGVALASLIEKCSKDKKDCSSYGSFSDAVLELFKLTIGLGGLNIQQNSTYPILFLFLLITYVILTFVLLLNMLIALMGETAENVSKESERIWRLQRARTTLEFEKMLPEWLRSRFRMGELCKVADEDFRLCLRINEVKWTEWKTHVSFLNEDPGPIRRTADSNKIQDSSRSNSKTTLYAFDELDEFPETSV
The experiment in a line: Whole-cell patch clamp, rat TRPV3-mediated currents.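 Further: compounds tested at concentrations up to 30 µM.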 It is filed as cell-based. The text has this:
(§1) Whole-cell patch clamp experiments permit the detection of currents through the TRPV3 channel in the cell line described above. A glass electrode is brought into contact with a single cell and the membrane is then ruptured, permitting control of the voltage of the cell membrane and measurement of currents flowing across the membrane using the amplifier attached to the electrode. A perfusion system permits control of the extracellular solution, including the addition of blockers and activators of the current. The current can be activated by heating this solution to 28° C. or warmer or by addition of 20 μM 2-APB to the solution.
(§2) TRPV3 cells were induced 20-48 hours, removed from growth plates, and replated at low density (to attain good single-cell physical separation) on glass coverslips for measurement. In some cases, cells were grown in low density overnight on glass coverslips. Patch clamp recordings were made in the whole-cell mode with a holding potential of −40 mV. Every 5 seconds, a voltage ramp was applied from −120 to +100 mV, 400 ms in duration. Currents elicited were quantified at −80 mV and +80 mV. The internal solution consisted of 140 mM cesium aspartate, 10 mM EGTA, 2.27 mM MgCl2, 1.91 mM CaCl2 and 10 mM HEPES, pH to 7.2 with KOH; with 50 nM calculated free Ca^2+. External solution was Ringer's solution described above. Upon addition of 2-APB or upon heating of the extracellular solution as described above, TRPV3 current was induced only in TRPV3-expressing cells and not in parental HEK293 TREx cells. […] Removal of the stimulus caused most of the current to go away, and inhibitor addition could still inhibit this current. […]
(§3) P1 refers to the Phase 1 current for human (h) and rat (r) TRPV3, and P2 refers to the Phase 2 current for human (h) and rat (r) TRPV3.
Background: The patch-clamp technique gives a direct electrical read-out from membranes.

Data set [2] addresses hERG (Homo sapiens, UniProt Q12809). The data set is described as follows: in vitro.
Description: Compounds of interest can be tested against these channels at concentrations up to 30 μM, and the resulting data can be used to estimate IC50 for inhibition of the activity of these other ion channels.
The target in data set [3] is T2, human (h) TRPV3 (Homo sapiens, UniProt Q8NET8).
T2 construct: expressed in transfected cells; host or cells: HEK293/TREx, tetracycline-induced
T2 sequence (Q8NET8 1-790): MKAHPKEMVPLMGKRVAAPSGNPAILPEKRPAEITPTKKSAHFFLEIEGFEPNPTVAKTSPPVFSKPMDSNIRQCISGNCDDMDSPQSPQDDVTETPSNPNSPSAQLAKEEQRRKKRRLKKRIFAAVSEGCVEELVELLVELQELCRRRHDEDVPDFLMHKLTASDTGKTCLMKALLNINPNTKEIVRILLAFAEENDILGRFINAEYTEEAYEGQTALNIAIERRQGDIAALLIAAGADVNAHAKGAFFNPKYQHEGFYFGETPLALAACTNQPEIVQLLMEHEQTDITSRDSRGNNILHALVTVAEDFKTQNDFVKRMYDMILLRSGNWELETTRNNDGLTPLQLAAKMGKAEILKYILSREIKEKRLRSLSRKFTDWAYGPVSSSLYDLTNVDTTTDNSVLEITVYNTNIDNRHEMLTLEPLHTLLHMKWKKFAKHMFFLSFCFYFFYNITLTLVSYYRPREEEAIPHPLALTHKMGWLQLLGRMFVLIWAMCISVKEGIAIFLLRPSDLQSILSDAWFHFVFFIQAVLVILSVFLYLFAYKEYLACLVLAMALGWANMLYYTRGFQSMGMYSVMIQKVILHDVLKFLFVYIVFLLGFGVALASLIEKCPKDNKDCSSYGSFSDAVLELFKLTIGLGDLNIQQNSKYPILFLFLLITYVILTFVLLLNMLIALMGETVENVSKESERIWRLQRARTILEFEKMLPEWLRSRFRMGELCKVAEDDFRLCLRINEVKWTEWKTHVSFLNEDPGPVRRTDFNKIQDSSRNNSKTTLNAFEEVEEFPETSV
The experiment in a line: Whole-cell patch clamp, human TRPV3-mediated currents.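 Further: compounds tested at concentrations up to 30 µM.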 It is filed as cell-based.
Description: as §1, §2, §3

Data set [4] addresses T3, TRPV3 channel (Homo sapiens, UniProt Q8NET8).
T3 construct: expressed in transfected cells; host or cells: HEK293/TREx (Invitrogen), tetracycline-induced
T3 sequence (Q8NET8 1-790): T2 sequence (Q8NET8 1-790)
The data set is described as follows: High-throughput screening assay: Ca2+ rise after 2-APB activation in HEK293/TREx cells inducibly expressing TRPV3. Conditions: read-out: IC50 for inhibition of TRPV3 activity; Ca2+ flux, Fura-2, 150 μM 2-APB. It is filed as cell-based. The text has this:
The assay depends on detection of the rise in intracellular Ca^2+ concentration ([Ca^2+]i) following channel activation in cells inducibly expressing the TRPV3 channel. Ca^2+ rise is quantified with the use of fluorescent Ca^2+ indicators that are loaded into cells and thereafter indicated the [Ca^2+]i. Ca^2+ influx follows activation of the TRPV3 channel. Compounds inhibiting this [Ca^2+]i rise are considered hits for further investigation.
The commercially available HEK293/TREx line (Invitrogen) was stably transfected with a TRPV3 construct and screened by immunostaining to find clones with TRPV3 expression following stimulation with 1 μg/ml tetracycline. Clonal TRPV3-expressing cells were maintained in the growth medium recommended by the manufacturer supplemented with 100 μg/ml hygromycin to promote retention of the TRPV3 construct. After growing to near confluency, cells are plated at a density of ˜25,000 cells/well in 384 well plates in the presence of 1 μg/ml tetracycline, and allowed to grow for 20-30 hrs. A nearly confluent monolayer results. […] These controls defined a screening window, and “hits” were defined as those test compounds inhibiting the fluorescence response by at least 40%.
(In general: Calcium flux is commonly read through the fluorescence of an indicator in the cells.)

The structures appear in SMILES notation. Read-outs that look alike come from different tables or passages of the source.

Sequence of hERG (Q12809 whole entry): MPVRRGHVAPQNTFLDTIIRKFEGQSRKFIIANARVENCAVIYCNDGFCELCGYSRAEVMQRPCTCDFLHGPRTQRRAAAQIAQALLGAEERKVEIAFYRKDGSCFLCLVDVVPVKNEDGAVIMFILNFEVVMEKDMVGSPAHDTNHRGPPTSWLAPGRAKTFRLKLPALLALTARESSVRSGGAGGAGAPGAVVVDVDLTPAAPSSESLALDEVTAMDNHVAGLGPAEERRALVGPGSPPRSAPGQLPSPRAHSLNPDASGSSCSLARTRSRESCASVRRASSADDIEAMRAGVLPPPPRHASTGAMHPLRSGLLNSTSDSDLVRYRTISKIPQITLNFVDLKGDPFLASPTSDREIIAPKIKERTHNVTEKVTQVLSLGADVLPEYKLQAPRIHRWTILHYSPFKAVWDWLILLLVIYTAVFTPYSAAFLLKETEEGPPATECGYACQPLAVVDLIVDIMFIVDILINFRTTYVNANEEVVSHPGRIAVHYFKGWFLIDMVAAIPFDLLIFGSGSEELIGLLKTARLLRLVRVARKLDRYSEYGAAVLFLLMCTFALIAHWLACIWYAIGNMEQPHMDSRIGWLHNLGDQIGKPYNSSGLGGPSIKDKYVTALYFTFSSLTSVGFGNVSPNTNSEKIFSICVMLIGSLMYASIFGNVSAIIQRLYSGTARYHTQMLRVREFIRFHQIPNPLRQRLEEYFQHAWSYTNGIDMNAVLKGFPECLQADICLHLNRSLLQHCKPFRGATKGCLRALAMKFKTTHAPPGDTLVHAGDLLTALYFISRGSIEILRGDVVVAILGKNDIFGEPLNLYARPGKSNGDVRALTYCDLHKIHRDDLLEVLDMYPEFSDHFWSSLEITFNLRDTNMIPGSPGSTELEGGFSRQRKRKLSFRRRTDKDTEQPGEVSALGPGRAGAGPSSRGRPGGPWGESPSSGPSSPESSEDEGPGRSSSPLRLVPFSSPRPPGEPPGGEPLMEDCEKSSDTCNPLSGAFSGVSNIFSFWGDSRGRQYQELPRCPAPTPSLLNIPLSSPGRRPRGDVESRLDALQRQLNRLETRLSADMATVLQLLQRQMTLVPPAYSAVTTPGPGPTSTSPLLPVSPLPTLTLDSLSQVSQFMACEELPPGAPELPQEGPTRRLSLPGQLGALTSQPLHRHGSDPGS

Take `COc1nccc(/C=C/c2nc3ccccc3c(=O)n2-c2c(C)cccc2C)c1O` [Compound 37]: the IC50 in data set [1] (Phase 1 inward current, read-out: P1 In (r)) was at most 500 nM; in data set [1] (Phase 1 outward current, read-out: P1 Out (r)) it was at most 500 nM; in data set [1] (Phase 2 inward current, read-out: P2 In (r)) it was at most 500 nM; in data set [1] (Phase 2 outward current, read-out: P2 Out (r)), at most 500 nM; in data set [2], at least 20000 nM; in data set [3] (Phase 1 inward current, read-out: P1 In (h)), at most 500 nM. Also, the IC50 in data set [3] (Phase 1 outward current, read-out: P1 Out (h)) is at most 500 nM; in data set [3] (Phase 2 inward current, read-out: P2 In (h)), at most 500 nM; in data set [3] (Phase 2 outward current, read-out: P2 Out (h)), at most 500 nM.
Consider `Cc1cccc(C)c1-n1c(/C=C/c2cccc3cn[nH]c23)nc2ccccc2c1=O` [Compound 40], for which the IC50 in data set [4] is below 5000 nM.
